Entries after “also recorded” stand apart in the source; their conditions may differ.
What was measured:
Format in all cases: physicochemical
[1] = Dissolution profile of tablets in pH6.8 PBS+3% Tween 80; settings: tablet 61 mg, paddle 75 rpm, 37° C.
Experimental: (§1) The cumulative dissolution was measured at different time in pH6.8 PBS+1% Tween 80 and pH6.8 PBS+3% Tween 80. The dissolution results are presented in Table 24 (FIG. 23) and Table 25 (FIG. 24).

[2] = Stability of drug substance on storage (XRPD, HPLC purity); settings: for chemical purity during storage: drug substance
Source text: Crystalline form and chemical impurity were checked by XRPD and HPLC, respectively.
Crystalline form and purity were checked by XRPD and HPLC, respectively.

[3] = Dissolution profile of tablets in pH6.8 PBS+1% Tween 80; settings: tablet 61 mg, paddle 75 rpm, 37° C.
Experimental: as §1
The cumulative dissolution was measured at different time in pH6.8 PBS+1% Tween 80.

[4] = Hygroscopicity by dynamic vapor sorption (DVS); settings: 80% RH; for Weight gain: 25° C., DVS; for hygroscopicity: pharmacopoeia definition
Experimental: Dynamic Vapor Sorption (DVS) is measured via a SMS (Surface Measurement Systems Ltd.) intrinsic DVS instrument. Its control software is DVS-Intrinsic control software. Typical parameters for DVS tests are as follows:
Gas and flow rate: N2, 200 mL/min
RH range: 0% RH to 95% RH
The weight gains at each relative humidity were recorded in a cycle of 0-95%-0 RH. The XRPD patterns were collected before and after the DVS test and depicted in FIG. 11.
Description and definition of hygroscopicity (general notice 9103 drug hygroscopicity test guidelines in 2015 edition of Chinese Pharmacopoeia, test at 25° C.+/−1° C., 80% RH. The definition of hygroscopicity in the 9th European Pharmacopoeia 5.11 is in consistent with the Chinese Pharmacopoeia.). • deliquescent: sufficient water is absorbed to form a solution. • very hygroscopic: increase in mass is equal to or greater than 15 percent. • hygroscopic: increase in mass is less than 15 percent and equal to or greater than 2 percent. • slightly hygroscopic: increase in mass is less than 2 percent and equal to or greater than 0.2 percent. • non hygroscopic or almost non hygroscopic: Increase in mass is less than 0.2%.
The weight gains at each relative humidity were recorded in a cycle of 0-95%-0RH. The XRPD patterns were collected before and after the DVS test and depicted in FIG. 22. […] Form CSVI is slightly hygroscopic.
The weight gains at each relative humidity were recorded in a cycle of 0-95%-0RH. The XRPD patterns were collected before and after the DVS test and depicted in FIG. 31.

[5] = Stability of Form CSV in drug product; settings: for Purity % / Solid Form: drug product
Source text: X-ray powder diffraction patterns of drug product stability study in the present disclosure were acquired by a Bruker D8 Discover X-ray powder diffractometer. The parameters of the X-ray powder diffraction method of the present disclosure are as follows:
The XRPD patterns were collected before and after the formulation process.

[6] = Grinding stability (XRPD before and after grinding); settings: manually ground in the mortar for five minutes
Source text: A certain amount of Form CSV and WO2016038500 Form 1 were manually ground in the mortar for five minutes.

[7] = Compressibility (manual tablet press, tensile strength); settings: 80 mg, φ6 mm round tooling, 10 KN; for Hardness: 24 hours recovery; for Tensile strength: T=2H/πDL*9.8
Experimental: An ENERPAC manual tablet press was used for tableting. […] Diameter (D) and thickness (L) were tested with a caliper. Hardness (H) was tested with an intelligent tablet hardness tester. Tensile strength of the powder was calculated with the following formula: T=2H/πDL*9.8. Under a certain force, the greater the tensile strength, the better the compressibility.
Diameter (D) and thickness (L) were tested with a caliper. Hardness (H) was tested with an intelligent tablet hardness tester. Tensile strength of the powder was calculated with the following formula: T=2H/πDL*9.8. Under a certain force, the greater the tensile strength, the better the compressibility.

[8] = Dissolution profile of capsules in pH6.8 PBS; settings: capsule 61 mg, paddle 50 rpm, 37° C.
Experimental: The cumulative dissolution was measured at different time in pH6.8 PBS.

[9] = Adhesiveness (material sticking to the punch); settings: 30 mg, φ8 mm round tooling, 10 KN held for 30 s
Experimental: The punch was weighed and amount of material sticking to the punch was calculated. The compression was repeated twice and the cumulative amount, maximum amount and average amount of material sticking to the punch during the compression were recorded.

[10] = 40° C./75% RH, Sealed, 6 months
[11] = 60° C./75% RH, Sealed, 2 months
[12] = 40° C./75% RH and 60° C./75% RH
[13] = double aluminum blister, 25° C./60% RH, 3 months
[14] = double aluminum blister, 40° C./75% RH, 3 months

## O=C(O)CCCC(=O)O.O=C(O)c1ccc2nc(-c3cc(Cl)cc(Cl)c3)oc2c1.O=C(O)c1ccc2nc(-c3cc(Cl)cc(Cl)c3)oc2c1 [Form CSVI]
[1]; 0 min
  Cumulative drug release in pH 6.8 PBS + 3% Tween 80 (%): 0.0%
[1]; 5 min
  Cumulative drug release in pH 6.8 PBS + 3% Tween 80 (%): 27.0%
[1]; 10 min
  Cumulative drug release in pH 6.8 PBS + 3% Tween 80 (%): 38.2%
[1]; 15 min
  Cumulative drug release in pH 6.8 PBS + 3% Tween 80 (%): 46.4%
[1]; 20 min
  Cumulative drug release in pH 6.8 PBS + 3% Tween 80 (%): 51.9%
[1]; 30 min
  Cumulative drug release in pH 6.8 PBS + 3% Tween 80 (%): 60.4%
[1]; 45 min
  Cumulative drug release in pH 6.8 PBS + 3% Tween 80 (%): 68.5%
[1]; 60 min
  Cumulative drug release in pH 6.8 PBS + 3% Tween 80 (%): 73.8%
[1]; 90 min
  Cumulative drug release in pH 6.8 PBS + 3% Tween 80 (%): 79.2%
[1]; 120 min
  Cumulative drug release in pH 6.8 PBS + 3% Tween 80 (%): 81.9%
[2]; 25° C./60% RH, Open, 6 months
  Purity: 99.96%
  Solid Form: Form CSVI
[2]; 40° C./75% RH, Open, 6 months
  Purity: 99.95%
  Solid Form: Form CSVI
[2]; [10]
  Purity: 99.95%
  Solid Form: Form CSVI
[2]; [11]
  Purity: 99.95%
  Solid Form: Form CSVI
[2]; Initial
  Purity: 99.95%
  Solid Form: Form CSVI
[2]; 25° C./60% RH
  chemical purity during storage: above 99.9%
[2]; [12]
  chemical purity during storage: above 99.9%
[3]; 0 min
  Cumulative drug release in pH 6.8 PBS + 1% Tween 80 (%): 0.0%
[3]; 5 min
  Cumulative drug release in pH 6.8 PBS + 1% Tween 80 (%): 19.1%
[3]; 10 min
  Cumulative drug release in pH 6.8 PBS + 1% Tween 80 (%): 28.3%
[3]; 15 min
  Cumulative drug release in pH 6.8 PBS + 1% Tween 80 (%): 34.7%
[3]; 20 min
  Cumulative drug release in pH 6.8 PBS + 1% Tween 80 (%): 39.8%
[3]; 30 min
  Cumulative drug release in pH 6.8 PBS + 1% Tween 80 (%): 47.4%
[3]; 45 min
  Cumulative drug release in pH 6.8 PBS + 1% Tween 80 (%): 56.0%
[3]; 60 min
  Cumulative drug release in pH 6.8 PBS + 1% Tween 80 (%): 62.1%
[3]; 90 min
  Cumulative drug release in pH 6.8 PBS + 1% Tween 80 (%): 70.4%
[3]; 120 min
  Cumulative drug release in pH 6.8 PBS + 1% Tween 80 (%): 75.7%
[3]; 150 min
  Cumulative drug release in pH 6.8 PBS + 1% Tween 80 (%): 80.7%
[4]
  Weight gain: 0.21%
  hygroscopicity: slightly hygroscopic (increase in mass is less than 2 percent and equal to or greater than 0.2 percent)

## O=C(O)/C=C/C(=O)O.O=C(O)c1ccc2nc(-c3cc(Cl)cc(Cl)c3)oc2c1.O=C(O)c1ccc2nc(-c3cc(Cl)cc(Cl)c3)oc2c1 [Form CSV]
[5]; Initial
  Purity %: 99.84%
  Solid Form: Form CSV
[5]; [13]
  Purity %: 99.87%
  Solid Form: Form CSV
[5]; [14]
  Purity %: 99.86%
  Solid Form: Form CSV
[5]; formulation of Table 10, process of Table 11
  stability in the formulation process (XRPD before and after): stable in the formulation process
[6]
  crystallinity after grinding: keeps substantially unchanged
[2]; 25° C./60% RH, Open, 6 months
  Purity: 99.96%
  Solid Form: Form CSV
[2]; 40° C./75% RH, Open, 6 months
  Purity: 99.96%
  Solid Form: Form CSV
[2]; [10]
  Purity: 99.96%
  Solid Form: Form CSV
[2]; 60° C./75% RH, Open, 2 months
  Purity: 99.94%
  Solid Form: Form CSV
[2]; [11]
  Purity: 99.94%
  Solid Form: Form CSV
[2]; Initial
  Purity: 99.96%
  Solid Form: Form CSV
[2]; 25° C./60% RH
  chemical purity during storage: above 99.9%
[2]; [12]
  chemical purity during storage: above 99.9%
[7]
  Hardness: 4.85 kgf
  Tensile strength: 2.86 MPa
[8]; 0 min
  Cumulative drug release (%): 0.0%
[8]; 5 min
  Cumulative drug release (%): 6.6%
[8]; 10 min
  Cumulative drug release (%): 67.6%
[8]; 15 min
  Cumulative drug release (%): 82.8%
[8]; 20 min
  Cumulative drug release (%): 88.4%
[8]; 30 min
  Cumulative drug release (%): 89.1%
[8]; 45 min
  Cumulative drug release (%): 87.4%
[8]; 60 min
  Cumulative drug release (%): 86.4%
[4]
  Weight gain: 0.09%
  hygroscopicity: non hygroscopic or almost non-hygroscopic; also recorded: non-hygroscopic or almost non-hygroscopic

## O=C(O)c1ccc2nc(-c3cc(Cl)cc(Cl)c3)oc2c1 [WO2016038500 Form 1, reference compound]
[9]
  Average amount (mg) of material sticking to the punch: 0.265 mg
[1]; 0 min
  Cumulative drug release in pH 6.8 PBS + 3% Tween 80 (%): 0.0%
[1]; 5 min
  Cumulative drug release in pH 6.8 PBS + 3% Tween 80 (%): 22.7%
[1]; 10 min
  Cumulative drug release in pH 6.8 PBS + 3% Tween 80 (%): 33.1%
[1]; 15 min
  Cumulative drug release in pH 6.8 PBS + 3% Tween 80 (%): 39.7%
[1]; 20 min
  Cumulative drug release in pH 6.8 PBS + 3% Tween 80 (%): 45.0%
[1]; 30 min
  Cumulative drug release in pH 6.8 PBS + 3% Tween 80 (%): 52.5%
[1]; 45 min
  Cumulative drug release in pH 6.8 PBS + 3% Tween 80 (%): 60.5%
[1]; 60 min
  Cumulative drug release in pH 6.8 PBS + 3% Tween 80 (%): 65.9%
[1]; 90 min
  Cumulative drug release in pH 6.8 PBS + 3% Tween 80 (%): 73.0%
[1]; 120 min
  Cumulative drug release in pH 6.8 PBS + 3% Tween 80 (%): 77.2%
[6]
  crystallinity after grinding: decreases
[3]; 0 min
  Cumulative drug release in pH 6.8 PBS + 1% Tween 80 (%): 0.0%
[3]; 5 min
  Cumulative drug release in pH 6.8 PBS + 1% Tween 80 (%): 4.0%
[3]; 10 min
  Cumulative drug release in pH 6.8 PBS + 1% Tween 80 (%): 10.4%
[3]; 15 min
  Cumulative drug release in pH 6.8 PBS + 1% Tween 80 (%): 15.6%
[3]; 20 min
  Cumulative drug release in pH 6.8 PBS + 1% Tween 80 (%): 19.5%
[3]; 30 min
  Cumulative drug release in pH 6.8 PBS + 1% Tween 80 (%): 25.7%
[3]; 45 min
  Cumulative drug release in pH 6.8 PBS + 1% Tween 80 (%): 33.0%
[3]; 60 min
  Cumulative drug release in pH 6.8 PBS + 1% Tween 80 (%): 38.4%
[3]; 90 min
  Cumulative drug release in pH 6.8 PBS + 1% Tween 80 (%): 46.8%
[3]; 120 min
  Cumulative drug release in pH 6.8 PBS + 1% Tween 80 (%): 53.3%
[3]; 150 min
  Cumulative drug release in pH 6.8 PBS + 1% Tween 80 (%): 61.4%
[7]
  Hardness: 2.32 kgf
  Tensile strength: 1.78 MPa
[8]; 0 min
  Cumulative drug release (%): 0.0%
[8]; 5 min
  Cumulative drug release (%): 14.0%
[8]; 10 min
  Cumulative drug release (%): 27.3%
[8]; 15 min
  Cumulative drug release (%): 29.1%
[8]; 20 min
  Cumulative drug release (%): 28.1%
[8]; 30 min
  Cumulative drug release (%): 27.6%
[8]; 45 min
  Cumulative drug release (%): 26.8%
[8]; 60 min
  Cumulative drug release (%): 21.8%

— patent US11795152B2, “Crystal form of tafamidis and preparation method therefor and use thereof” (CRYSTAL PHARMACEUTICAL (SUZHOU) CO., LTD., priority 2019, dated 2023)
